In patent US20080009523A1, “New Pyridine Analogues IV” (ASTRAZENECA AB, priority 2006, published 2008):

Molecular target: T1, P2Y12 receptor (Homo sapiens, UniProt Q9H244)
T1 construct: expressed in transfected cells; host or cells: CHO cells (membrane preparation)
Assay: Functional inhibition of 2-Me-S-ADP induced P2Y12 signalling (35S-GTPγS, membranes from P2Y12 transfected CHO-cells)
Type: biochemical
Settings: EC80 concentration of agonist 2-methyl-thio-adenosine diphosphate, 30° C., 45 min
Experimental: Functional inhibition of the P2Y12 receptor can be measured by in vitro assays using cell membranes from P2Y12 transfected CHO-cells, the methodology is indicated below.
Functional inhibition of 2-Me-S-ADP induced P2Y12 signalling: 5 μg of membranes were diluted in 200 μl of 200 mM NaCl, 1 mM MgCl2, 50 mM HEPES (pH 7.4), 0.01% BSA, 30 μg/ml saponin and 10 μM GDP. To this was added an EC80 concentration of agonist (2-methyl-thio-adenosine diphosphate), the required concentration of test compound and 0.1 μCi ^35S-GTPγS. The reaction was allowed to proceed at 30° C. for 45 min. Samples were then transferred on to GF/B filters using a cell harvester and washed with wash buffer (50 mM Tris (pH 7.4), 5 mM MgCl2, 50 mM NaCl). Filters were then covered with scintilant and counted for the amount of ^35S-GTPγS retained by the filter. Maximum activity was that determined in the presence of the agonist and minimum activity in the absence of the agonist following subtraction of the value determined for non-specific activity. The effect of compounds at various concentrations was plotted according to the equation […]
y=A+((B−A)/(1+((C/x)̂D)))
A is the bottom plateau of the curve i.e. the final minimum y value
B is the top of the plateau of the curve i.e. the final maximum y value
C is the x value at the middle of the curve. This represents the log EC50 value when A+B=100 […]

T1 sequence (Q9H244 whole entry): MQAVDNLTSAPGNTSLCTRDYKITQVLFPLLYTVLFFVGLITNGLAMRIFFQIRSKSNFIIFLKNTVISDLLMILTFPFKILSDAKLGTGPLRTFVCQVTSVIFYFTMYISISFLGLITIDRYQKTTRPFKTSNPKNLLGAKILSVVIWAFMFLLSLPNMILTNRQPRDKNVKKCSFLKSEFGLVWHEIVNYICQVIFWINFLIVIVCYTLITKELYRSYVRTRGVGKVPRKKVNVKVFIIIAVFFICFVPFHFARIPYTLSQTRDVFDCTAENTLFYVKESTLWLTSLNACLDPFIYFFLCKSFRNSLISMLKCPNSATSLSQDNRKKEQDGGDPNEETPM

| Structure (SMILES) | IC50 |
| --- | --- |
| CCOC(=O)c1cc(C#N)c(N2CCC(S(=O)(=O)NS(=O)(=O)Cc3ccccc3)CC2)nc1C [Example 2, ethyl 6-(4-{[(benzylsulfonyl)amino]sulfonyl}piperidin-1-yl)-5-cyano-2-methylnicotinate] | 640 nM |
| CCOC(=O)c1cc(C#N)c(N2CCC(S(=O)(=O)NC(=O)Cc3ccc(F)cc3)CC2)nc1C [Example 4, Ethyl 5-cyano-6-[4-({[(4-fluorophenyl)acetyl]amino}sulfonyl)piperidin-1-yl]-2-methylnicotinate] | 300 nM |
